pEC50: −log10 of the molar value.
Assays:
[1] = target: T1, sGC α1/β1 heterodimer (Homo sapiens, UniProt Q02108+Q02153); assay: Cell-based sGC functional assay (CASA assay): cGMP generation in CHO-K1/sGC cells, HTRF detection; conditions: for Emax: CHO-K1, percent activation relative to standard Compound A in CHO-K1/sGC cells, read-out: % Act.; for pEC50: inflection point (IP) of cGMP generation in CHO-K1/sGC cells, 4P fit, activity expressed as percentage of Compound A
T1 construct: expressed in transfected cells; host or cells: CHO-K1 (clone #7, CHO-K1/sGC)
T1 sequence (Q02108 1-690): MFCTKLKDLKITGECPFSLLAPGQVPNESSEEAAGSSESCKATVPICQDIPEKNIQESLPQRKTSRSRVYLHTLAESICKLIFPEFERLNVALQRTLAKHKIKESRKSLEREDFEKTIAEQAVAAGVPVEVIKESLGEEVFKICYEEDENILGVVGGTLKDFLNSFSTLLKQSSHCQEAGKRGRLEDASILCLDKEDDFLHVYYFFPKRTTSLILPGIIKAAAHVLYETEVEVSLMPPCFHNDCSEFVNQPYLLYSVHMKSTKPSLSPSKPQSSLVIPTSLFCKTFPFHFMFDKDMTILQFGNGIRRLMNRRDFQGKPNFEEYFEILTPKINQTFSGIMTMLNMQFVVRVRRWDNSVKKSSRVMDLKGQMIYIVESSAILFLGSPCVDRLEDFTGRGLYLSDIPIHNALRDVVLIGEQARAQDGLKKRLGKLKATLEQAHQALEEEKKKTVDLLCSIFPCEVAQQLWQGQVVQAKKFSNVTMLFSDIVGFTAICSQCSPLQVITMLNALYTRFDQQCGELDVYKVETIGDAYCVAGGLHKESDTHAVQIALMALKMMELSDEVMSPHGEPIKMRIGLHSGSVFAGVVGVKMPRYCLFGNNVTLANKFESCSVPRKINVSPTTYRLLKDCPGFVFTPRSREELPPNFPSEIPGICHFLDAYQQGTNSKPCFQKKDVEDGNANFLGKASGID
T1 sequence (Q02153 1-619): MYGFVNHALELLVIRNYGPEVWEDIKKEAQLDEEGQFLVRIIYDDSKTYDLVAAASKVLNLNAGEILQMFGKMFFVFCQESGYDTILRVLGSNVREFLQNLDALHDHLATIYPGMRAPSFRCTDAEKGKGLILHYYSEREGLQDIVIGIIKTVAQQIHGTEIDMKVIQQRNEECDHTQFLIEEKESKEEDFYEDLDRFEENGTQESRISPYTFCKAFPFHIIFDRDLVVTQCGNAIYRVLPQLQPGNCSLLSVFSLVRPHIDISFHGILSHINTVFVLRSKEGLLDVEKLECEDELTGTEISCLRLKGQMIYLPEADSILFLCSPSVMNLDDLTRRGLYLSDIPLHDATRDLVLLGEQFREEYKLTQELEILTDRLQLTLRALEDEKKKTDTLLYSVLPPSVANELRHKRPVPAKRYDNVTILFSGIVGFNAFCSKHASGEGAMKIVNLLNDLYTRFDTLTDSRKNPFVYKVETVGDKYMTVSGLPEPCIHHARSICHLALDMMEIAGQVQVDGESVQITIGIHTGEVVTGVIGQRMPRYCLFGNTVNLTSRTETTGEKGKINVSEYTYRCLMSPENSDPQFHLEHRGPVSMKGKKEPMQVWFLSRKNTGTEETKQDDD
Procedure, shortened: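 Stable CHO-K1/sGC cells in EBSS buffer with 5 mM MgCl2, 0.05% BSA and 0.5 mM IBMX were incubated with compound (2.5% DMSO final) ±1 μM DETA-NO for 1 hr at 37° C. cGMP was measured by HTRF. Activation is expressed as % of reference HDA Compound A maximum, with IP and max fold induction from a 4P fit.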

[2] = system: Spontaneously hypertensive rats (SHR); assay: Acute efficacy in spontaneously hypertensive rats (SHR): telemetry blood pressure lowering after a single oral dose; assay type: in vivo, rat
Procedure, shortened: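 Male SHR carrying aortic telemetry implants (14-day recovery) received a single oral gavage of compound or vehicle (10% transcutol/20% Cremophor/70% water). Conscious blood pressure was sampled 30 s every 10 min and averaged hourly; change was taken against the prior-day vehicle baseline, reported as maximum peak SBP decrease at a given PO dose (mpk).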

| Emax [1] [%] | pEC50 [1] | SMILES | Maximum peak decrease of systolic blood pressure (SBP) in SHR, Cat. ([2]; P.O. 3.0 mpk) | Maximum peak decrease of systolic blood pressure (SBP) in SHR, Cat. ([2]; P.O. 0.3 mpk) | Maximum peak decrease of systolic blood pressure (SBP) in SHR, Cat. ([2]; P.O. 1.0 mpk) |
| --- | --- | --- | --- | --- | --- |
| 148 | 6.02 | Nc1nc(-c2cn3ccnc3c(CCC(F)(F)F)n2)nc2c1C(c1ccc(F)cc1)(C1CCC1)C(=O)N2 (single isomer, unassigned) [Example 345B, 4-amino-5-cyclobutyl-5-(4-fluorophenyl)-2-(8-(3,3,3-trifluoropropyl)imidazo[1,2-a]pyrazin-6-yl)-5H-pyrrolo[2,3-d]pyrimidin-6(7H)-one] | A (Category A=SBP in SHRs<20 mmHg) |  |  |
| 109 | 7.09 | CCOc1ccc(C2(C)C(=O)Nc3nc(-c4cn5ccnc5c(CCC(F)(F)C(F)(F)F)n4)nc(N)c32)cn1 (stereo not drawn) [Example 244B, 4-amino-5-(6-ethoxypyridin-3-yl)-5-methyl-2-(8-(3,3,4,4,4-pentafluorobutyl)imidazo [1,2-a]pyrazin-6-yl)-5H-pyrrolo[2,3-d]pyrimidin-6(7H)-one] | C (Category C=SBP in SHRs>40 mmHg) |  |  |
| 83 | 6.91 | CC1(c2ccc(Cl)cc2)C(=O)Nc2nc(-c3cn4ccnc4cn3)nc(NCCC(F)(F)C(F)(F)F)c21 (stereo not drawn) [Example 286A, 5-(4-chlorophenyl)-2-(imidazo[1,2-a]pyrazin-6-yl)-5-methyl-4-((3,3,4,4,4-pentafluorobutyl)amino)-5H-pyrrolo[2,3-d]pyrimidin-6(7H)-one] | A (Category A=SBP in SHRs<20 mmHg) |  |  |
| 87 | 6.77 | CCCc1ccc(C2(C)C(=O)Nc3nc(-c4cn5ccnc5c(CCC(F)(F)C(F)(F)F)n4)nc(N)c32)cn1 (stereo not drawn) [Example 250B, 4-amino-5-methyl-2-(8-(3,3,4,4,4-pentafluorobutyl)imidazo [1,2-a]pyrazin-6-yl)-5-(6-propylpyridin-3-yl)-5H-pyrrolo[2,3-d]pyrimidin-6(7H)-one] | A (Category A=SBP in SHRs<20 mmHg) |  |  |
| 112 | 6.87 | CCCc1nc(-c2nc(N)c3c(n2)NC(=O)C3(c2ccc(Cl)c(F)c2)C2CC2)cn2ccnc12 (stereo not drawn) [Example 327A, 4-amino-5-(4-chloro-3-fluorophenyl)-5-cyclopropyl-2-(8-propylimidazo[1,2-a]pyrazin-6-yl)-5H-pyrrolo[2,3-d]pyrimidin-6(7H)-one] |  |  | A (Category A=SBP in SHRs<20 mmHg) |

More lines, now with the values behind:

| SMILES | Emax [1] [%] | pEC50 [1] | Maximum peak decrease of systolic blood pressure (SBP) in SHR, Cat. ([2]; P.O. 3.0 mpk) | Maximum peak decrease of systolic blood pressure (SBP) in SHR, Cat. ([2]; P.O. 0.3 mpk) | Maximum peak decrease of systolic blood pressure (SBP) in SHR, Cat. ([2]; P.O. 1.0 mpk) |
| --- | --- | --- | --- | --- | --- |
| CC1(c2ncccn2)C(=O)Nc2nc(-c3cn4ccnc4c(CCC(F)(F)C(F)(F)F)n3)nc(N)c21 (stereo not drawn) [Example 220B, 4-amino-5-methyl-2-(8-(3,3,4,4,4-pentafluorobutyl)imidazo [1,2-a]pyrazin-6-yl)-5-(pyrimidin-2-yl)-5H-pyrrolo[2,3-d]pyrimidin-6(7H)-one] | 100 | 6.39 | A (Category A=SBP in SHRs<20 mmHg) |  |  |
| CCc1nnc(C2(C3CC3)C(=O)Nc3nc(-c4cn5ccnc5c(CCC(F)(F)C(F)(F)F)n4)nc(N)c32)s1 (single isomer, unassigned) [Example 30A, 4-Amino-5-cyclopropyl-5-(5-ethyl-1,3,4-thiadiazol-2-yl)-2-(8-(3,3,4,4,4-pentafluorobutyl)imidazo[1,2-a]pyrazin-6-yl)-5H-pyrrolo[2,3-d]pyrimidin-6(7H)-one] | 113 | 6.45 | C (Category C=SBP in SHRs>40 mmHg) |  |  |
| CC1(c2nnc(C3CC3)o2)C(=O)Nc2nc(-c3cn4ccnc4c(Cc4ccc(F)cc4)n3)nc(N)c21 (stereo not drawn) [Example 34A, 4-amino-5-(5-cyclopropyl-1,3,4-oxadiazol-2-yl)-2-(8-(4-fluorobenzyl)imidazo[1,2-a]pyrazin-6-yl)-5-methyl-5H-pyrrolo[2,3-d]pyrimidin-6(7H)-one] | 150 | 6.47 | B (Category B=SBP in SHRs 20-40 mmHg) |  |  |
| CC1(c2ccc(F)cc2)C(=O)Nc2nc(-c3cn4ccnc4c(CCC(F)(F)C(F)(F)F)n3)nc(N)c21 (single isomer, unassigned) [Example 222B, 4-amino-5-(4-fluorophenyl)-5-methyl-2-(8-(3,3,4,4,4-pentafluorobutyl)imidazo [1,2-a]pyrazin-6-yl)-5H-pyrrolo[2,3-d]pyrimidin-6(7H)-one] | 121 | 6.24 | B (Category B=SBP in SHRs 20-40 mmHg) |  |  |
| CCC1(c2ccc(F)cc2)C(=O)Nc2nc(-c3cn4ccnc4c(CCC(F)(F)C(F)(F)F)n3)nc(N)c21 (stereo not drawn) [Example 239A, 4-amino-5-ethyl-5-(4-fluorophenyl)-2-(8-(3,3,4,4,4-pentafluorobutyl)imidazo [1,2-a]pyrazin-6-yl)-5H-pyrrolo[2,3-d]pyrimidin-6(7H)-one] | 97 | 7.28 |  | B (Category B=SBP in SHRs 20-40 mmHg) |  |
| CC1(c2nnc(C3CC3)s2)C(=O)Nc2nc(-c3cn4ccnc4c(CCC(F)(F)C(F)(F)F)n3)nc(N)c21 (stereo not drawn) [Example 59A, 4-amino-5-(5-cyclopropyl-1,3,4-thiadiazol-2-yl)-5-methyl-2-(8-(3,3,4,4,4-pentafluorobutyl)imidazo[1,2-a]pyrazin-6-yl)-5H-pyrrolo[2,3-d]pyrimidin-6(7H)-one] | 97 | 7.17 |  |  | A (Category A=SBP in SHRs<20 mmHg) |
| CC(C)c1ccc(C2(C)C(=O)Nc3nc(-c4cn5ccnc5c(CCC(F)(F)C(F)(F)F)n4)nc(N)c32)nc1 (stereo not drawn) [Example 225A, 4-amino-5-(5-isopropylpyridin-2-yl)-5-methyl-2-(8-(3,3,4,4,4-pentafluorobutyl)imidazo [1,2-a]pyrazin-6-yl)-5H-pyrrolo[2,3-d]pyrimidin-6(7H)-one] | 82 | 6.78 |  |  | A (Category A=SBP in SHRs<20 mmHg) |
| CC1(C)C(=O)Nc2nc(-c3cn4ccnc4c(Cc4ccccc4F)n3)nc(N)c21 [Example 70, 4-amino-2-(8-(2-fluorobenzyl)imidazo[1,2-a]pyrazin-6-yl)-5,5-dimethyl-5H-pyrrolo[2,3-d]pyrimidin-6(7H)-one] | 109 | 7.68 |  | B (Category B=SBP in SHRs 20-40 mmHg) |  |
| Cc1cnc2c(CCC(F)(F)C(F)(F)F)nc(-c3nc(N)c4c(n3)NC(=O)C4(C)c3ccc(F)cn3)cn12 (stereo not drawn) [Example 173B, 4-amino-5-(5-fluoropyridin-2-yl)-5-methyl-2-(3-methyl-8-(3,3,4,4,4-pentafluorobutyl)imidazo [1,2-a]pyrazin-6-yl)-5H-pyrrolo[2,3-d]pyrimidin-6(7H)-one] | 92 | 6.81 |  |  | B (Category B=SBP in SHRs 20-40 mmHg) |
| CC1(c2ccc(Cl)c(F)c2)C(=O)Nc2nc(-c3cn4ccnc4cn3)nc(N)c21 (stereo not drawn) [Example 140B, 4-amino-5-(4-chloro-3-fluorophenyl)-2-(imidazo[1,2-a]pyrazin-6-yl)-5-methyl-5H-pyrrolo[2,3-d]pyrimidin-6(7H)-one] | 107 | 6.66 |  | B (Category B=SBP in SHRs 20-40 mmHg) |  |
| CCCCc1nc(-c2nc(N)c3c(n2)NC(=O)C3(C)c2ccc(F)cn2)cn2ccnc12 (stereo not drawn) [Example 16B, 4-amino-2-(8-butylimidazo[1,2-a]pyrazin-6-yl)-5-(5-fluoropyridin-2-yl)-5-methyl-5H-pyrrolo[2,3-d]pyrimidin-6(7H)-one] | 117 | 6.87 |  | C (Category C=SBP in SHRs>40 mmHg) |  |

Source: patent US9796733B2, “Imidazo-pyrazine derivatives useful as soluble guanylate cyclase activators” (Merck Sharp & Dohme Corp., priority 2014, dated 2017)
